According to ChEMBL document CHEMBL4842385, “Indirubin Derivatives as Dual Inhibitors Targeting Cyclin-Dependent Kinase and Histone Deacetylase for Treating Cancer” (J Med Chem, 2021):

Tests used:
[1] = target: CDK4/Cyclin D3 (Homo sapiens) (UniProt P11802+P30281); conditions: dose 100.0 nM, time 10.0 min
[2] = target: CDK6/cyclin D3 (Homo sapiens) (UniProt P30281+Q00534); conditions: dose 100.0 nM, time 10.0 min
[3] = target: CDK2/Cyclin A2 (Homo sapiens) (UniProt P24941+P20248); conditions: dose 100.0 nM, time 10.0 min
[4] = target: Histone deacetylase (Homo sapiens) (UniProt Q13547+O15379+Q9UBN7+Q92769+Q9UQL6+Q8WUI4+Q9BY41+Q96DB2+P56524+Q9UKV0+Q969S8); conditions: HeLa, Nucleus, dose 1000.0 nM, time 1.0 hrs
MCF7 = test: Antiproliferative activity against human MCF7 cells assessed as cell growth inhibition measured after 48 hrs by CCK8 assay; assay type: functional, cell-based; conditions: MCF7, 48 h
A549 [5] = test: Antiproliferative activity against human A549 cells assessed as cell growth inhibition measured after 48 hrs by CCK8 assay; assay type: functional, cell-based; conditions: A549, 48 h
A549 [6] = test: Synergistic antiproliferative activity against human A549 cells assessed as combination index in presence of vorinostat by Chou-Talalay method; assay type: functional
HeLa = test: Antiproliferative activity against human HeLa cells assessed as cell growth inhibition measured after 48 hrs by CCK8 assay; assay type: functional, cell-based
HepG2 = test: Antiproliferative activity against human HepG2 cells assessed as cell growth inhibition measured after 48 hrs by CCK8 assay; assay type: functional, cell-based; conditions: HepG2, 48 h
A549 [7] = test: Synergistic antiproliferative activity against human A549 cells assessed as combination index in presence of 2.5 to 46 uM tubastatin-A by Chou-Talalay method; assay type: functional; conditions: dose 2.5-46 µM
K562 = test: Antiproliferative activity against human K562 cells assessed as cell growth inhibition measured after 48 hrs by CCK8 assay; assay type: functional, cell-based; conditions: K562, 48 h

inhibition [1] | inhibition [2] | inhibition [3] | inhibition [4] | SMILES | other results
-4.5% | -2.7% | 6.6% | 90.6% | O=C(CCCCCCCO/N=C1/C(=C2/C(=O)Nc3ccccc32)Nc2ccccc21)NO | 
-4.3% | -2.3% | 5% | 87.5% | O=C(CCCCCCO/N=C1/C(=C2/C(=O)Nc3ccc(Br)cc32)Nc2ccccc21)NO | 
-0.2% | -0.8% |  | 9.1% | O=C(CCCO/N=C1/C(=C2/C(=O)Nc3ccc(Br)cc32)Nc2ccccc21)NO | 
10.2% | 28.8% | 30% | 89.9% | O=C(CCCCCO/N=C1/C(=C2/C(=O)Nc3ccccc32)Nc2ccccc21)NO | 
 |  | 6.2% | 76.6% | O=C(CCCCCCO/N=C1/C(=C2/C(=O)Nc3ccccc32)Nc2ccc([N+](=O)[O-])cc21)NO | 
21.1% | 45.4% | 47.4% | 58.3% | O=C(CCCCO/N=C1/C(=C2/C(=O)Nc3ccccc32)Nc2ccccc21)NO | 
 |  | 4% | 94.4% | Cc1ccc2c(c1)NC(=C1\C(=O)Nc3ccccc31)/C2=N/OCCCCCCC(=O)NO | 
13% | 3.5% | 54% | 88.6% | COc1ccc2c(c1)/C(=C1/Nc3ccccc3/C1=N\OCCCCCCC(=O)NO)C(=O)N2 | 
 |  | -1.4% | 90.8% | O=C(CCCCCCO/N=C1/C(=C2/C(=O)Nc3ccccc32)Nc2ccc(Cl)cc21)NO | 
 |  |  |  | CC(=O)c1c(C)c2cnc(Nc3ccc(N4CCNCC4)cn3)nc2n(C2CCCC2)c1=O [PALBOCICLIB] | IC50 (MCF7): > 10 µM; IC50 (A549 [5]): 9.4 µM; CI (A549 [6]): 0.9; IC50 (HeLa): > 10 µM; IC50 (HepG2): > 10 µM; CI (A549 [7]): 0.9; IC50 (K562): > 10 µM
1.3% | -2.2% | 18.6% | 89.9% | Cc1ccc2c(c1)/C(=C1/Nc3ccccc3/C1=N\OCCCCCCC(=O)NO)C(=O)N2 | 
6.1% | 6.5% | 14.6% | 98.1% | O=C(CCCCCCO/N=C1/C(=C2/C(=O)Nc3ccccc32)Nc2ccccc21)NO | 
3.5% | -0.7% |  | 21.4% | O=C(CCCCCO/N=C1/C(=C2/C(=O)Nc3ccc(Br)cc32)Nc2ccccc21)NO | 
54.5% | 44.4% |  | 17.5% | O=C(CO/N=C1/C(=C2/C(=O)Nc3ccc(Br)cc32)Nc2ccccc21)NO | 
 |  | 5.9% | 93.5% | COc1ccc2c(c1)C(=N\OCCCCCCC(=O)NO)/C(=C1/C(=O)Nc3ccccc31)N2 | 
 |  | 0.5% | 79.5% | O=C(CCCCCCO/N=C1/C(=C2/C(=O)Nc3ccccc32)Nc2ccc(Br)cc21)NO | 
18% | 63% | 54.9% | 82.6% | O=C(CCCCCCO/N=C1/C(=C2/C(=O)Nc3ccc(Cl)cc32)Nc2ccccc21)NO | 
1.1% | 1% | 33.4% | 77.2% | O=C(CCCCCCO/N=C1/C(=C2/C(=O)Nc3ccc([N+](=O)[O-])cc32)Nc2ccccc21)NO | 
2% | 4.6% | 2.1% | 91.1% | Cc1cccc2c1NC(=O)/C2=C1\Nc2ccccc2\C1=N/OCCCCCCC(=O)NO | 
-2.5% | 8.3% | 4.5% | 44.7% | COc1ccc2c(c1)NC(=O)/C2=C1\Nc2ccccc2\C1=N/OCCCCCCC(=O)NO | 
-5.6% | 4% | 3% | 8% | O=C(CCCCCCO/N=C1/C(=C2/C(=O)Nc3c2cccc3C(F)(F)F)Nc2ccccc21)NO | 
26.2% | 46.8% | 46.7% | 19.6% | O=C(CO/N=C1/C(=C2/C(=O)Nc3ccccc32)Nc2ccccc21)NO | 
9.7% | 0.8% | 55.7% | 67.3% | O=C(CCCCCCO/N=C1/C(=C2/C(=O)Nc3ccc(I)cc32)Nc2ccccc21)NO | 
-1.7% | 2.7% | 11.6% | 97.8% | Cc1ccc2c(c1)C(=N\OCCCCCCC(=O)NO)/C(=C1/C(=O)Nc3ccccc31)N2 | 
17.2% | 4.9% | 45.4% | 82.7% | O=C(CCCCCCO/N=C1/C(=C2/C(=O)Nc3ccc(F)cc32)Nc2ccccc21)NO | 
-1.5% | 46.6% | 33.9% | 15% | O=C1Nc2ccccc2/C1=C1/Nc2ccccc2/C1=N\O | 
17.9% | 8% |  | 60.2% | O=C(CCCCO/N=C1/C(=C2/C(=O)Nc3ccc(Br)cc32)Nc2ccccc21)NO | 
1% | 25.1% | 8.5% | 17.2% | O=C1Nc2ccccc2/C1=C1/Nc2ccccc2C1=O [INDIRUBIN] | IC50 (MCF7): > 10 µM; IC50 (A549 [5]): > 10 µM; IC50 (HeLa): > 10 µM; IC50 (HepG2): > 10 µM; IC50 (K562): > 10 µM
-5.8% | 0.8% | 2.9% |  | O=C(CCCCCCC(=O)Nc1ccccc1)NO | 
